From patent publication US9855230B2 (ViiV Healthcare UK (No. 5) Limited, priority 2014, dated 2018)
pEC50: −log10 of the molar value. Structures can show the parent of a compound that is named as a salt. Where two headings read alike, the source gives them in different places.

Columns and labels:
[1] = system: recombinant NL4-3 virus (nef section replaced with Renilla luciferase gene) in MT-2 cells; assay: whole plant or invertebrate; type: cell-based, HIV; details: NL43, luciferase activity in MT-2 cells infected 4-5 days with recombinant NL4-3 virus
Description: A recombinant NL4-3 proviral clone, in which a section of the nef gene was replaced with the Renilla luciferase gene, was used to make the reference virus used in these studies.
Supernatent was harvested after 2-3 days and the amount of virus present was titered in MT-2 cells using luciferase enzyme activity as a marker by measuring luciferase enzyme activity. Luciferase was quantitated using the EnduRen Live Cell Substrate from Promega (Madison, Wis.). Antiviral activities of compounds toward the recombinant virus were quantified by measuring luciferase activity in MT-2 cells infected for 4-5 days with the recombinant virus in the presence of serial dilutions of the compound.

[2] = Compound cytotoxicity (CC50), XTT-based colorimetric assay; type: cell-based; details: human; uninfected MT2 cells, day 4, XTT assay
Procedure: Compound cytotoxicity and the corresponding CC50 values were determined using the same protocol as described in the antiviral assay except that uninfected cells were used. Cytotoxicity was assessed on day 4 in uninfected MT2 cells by using a XTT (2,3-bis[2-Methoxy-4-nitro-5-sulfophenyl]-2H-tetrazolium-5-carboxyanilide inner salt)-based colorimetric assay (Sigma-Aldrich, St Louis, Mo.).

Cc1ccccc1S(=O)(=O)NC(=O)N[C@@H](Cc1cc(F)cc(F)c1)c1ncccc1-c1cccc(CO)c1 [Example 121, (S)-N-((2-(3,5-difluorophenyl)-1-(3-(3-(hydroxymethyl)phenyl)pyridin-2-yl)ethyl)carbamoyl)-2-methylbenzenesulfonamide, TFA]
pEC50 ([1]; read-out: Activity): 6.00 to 7.00
CC50 at 4 day [2]: > 100000 nM

COC(=O)Nc1ccc(-c2cccnc2C(Cc2ccccc2)NC(=O)NS(=O)(=O)c2ccccc2Cl)cc1 (stereo not shown) [Example 118, methyl (4-(2-(1-(3-((2-chlorophenyl)sulfonyl)ureido)-2-phenylethyl)pyridin-3-yl)phenyl)carbamate, TFA]
pEC50 ([1]; read-out: Activity): < 6.00
CC50 at 4 day [2]: > 100000 nM

Cc1ccccc1S(=O)(=O)NC(=O)N[C@@H](Cc1ccccc1)c1nccn1-c1cccc(Cl)c1 [Example 12, (S)-N-((1-(1-(3-chlorophenyl)-1H-imidazol-2-yl)-2-phenylethyl)carbamoyl)-2-methylbenzenesulfonamide]
pEC50 ([1]; read-out: Activity): > 7.00
pEC50 ([1]; read-out: EC50): 7.30
CC50 at 4 day [2]: > 100000 nM

Cc1ccccc1S(=O)(=O)NC(=O)N[C@@H](Cc1cc(F)cc(F)c1)c1ncccc1-c1ccc(F)c(C(N)=O)c1 [Example 97, (S)-5-(2-(2-(3,5-difluorophenyl)-1-(3-(o-tolylsulfonyl)ureido)ethyl)pyridin-3-yl)-2-fluorobenzamide, TFA]
pEC50 ([1]; read-out: Activity): 6.00 to 7.00
CC50 at 4 day [2]: > 100000 nM

COc1ccccc1-n1ccnc1[C@H](Cc1ccccc1)NC(=O)NS(=O)(=O)c1ccccc1C [Example 16, (S)-N-((1-(1-(2-methoxyphenyl)-1H-imidazol-2-yl)-2-phenylethyl)carbamoyl)-2-methylbenzenesulfonamide]
pEC50 ([1]; read-out: Activity): < 6.00
CC50 at 4 day [2]: > 100000 nM

Cc1ccccc1S(=O)(=O)NC(=O)N[C@@H](Cc1cc(F)cc(F)c1)c1ncccc1-c1coc2ccccc12 [Example 127, (S)-N-((1-(3-(benzofuran-3-yl)pyridin-2-yl)-2-(3,5-difluorophenyl)ethyl)carbamoyl)-2-methylbenzenesulfonamide, TFA]
pEC50 ([1]; read-out: Activity): < 6.00
CC50 at 4 day [2]: 72000 nM

Cc1ccccc1S(=O)(=O)NC(=O)N[C@@H](Cc1ccccc1)c1nccn1-c1ccc2sccc2c1 [Example 74, (S)-N-((1-(1-(benzo[b]thiophen-5-yl)-1H-imidazol-2-yl)-2-phenylethyl)carbamoyl)-2-methylbenzenesulfonamide]
pEC50 ([1]; read-out: Activity): > 7.00
CC50 at 4 day [2]: 39000 nM

COc1ncccc1-c1cccnc1[C@H](Cc1cc(F)cc(F)c1)NC(=O)NS(=O)(=O)c1ccccc1C [Example 124, (S)-N-((2-(3,5-difluorophenyl)-1-(2′-methoxy-[3,3′-bipyridin]-2-yl)ethyl)carbamoyl)-2-methylbenzenesulfonamide, TFA]
pEC50 ([1]; read-out: Activity): < 6.00
CC50 at 4 day [2]: > 100000 nM

Cc1ccccc1S(=O)(=O)NC(=O)N[C@@H](Cc1ccccc1)c1nccn1-c1ccc(-c2ccoc2C)cc1 [Example 62, (S)-2-methyl-N-((1-(1-(4-(2-methylfuran-3-yl)phenyl)-1H-imidazol-2-yl)-2-phenylethyl)carbamoyl)benzenesulfonamide]
pEC50 ([1]; read-out: Activity): > 7.00
CC50 at 4 day [2]: > 100000 nM

NC(=O)c1cc(-c2cccnc2[C@@H](Cc2cc(F)cc(F)c2)NC(=O)NS(=O)(=O)c2ccccc2Cl)ccc1F [Example 109, (R)-5-(2-(1-(3-((2-chlorophenyl)sulfonyl)ureido)-2-(3,5-difluorophenyl)ethyl)pyridin-3-yl)-2-fluorobenzamide, TFA]
pEC50 ([1]; read-out: Activity): < 6.00
CC50 at 4 day [2]: > 100000 nM

Cc1cc(-c2cccnc2[C@H](Cc2cc(F)cc(F)c2)NC(=O)NS(=O)(=O)c2ccccc2C)c(C)s1 [Example 133, (S)-N-((2-(3,5-difluorophenyl)-1-(3-(2,5-dimethylthiophen-3-yl)pyridin-2-yl)ethyl)carbamoyl)-2-methylbenzenesulfonamide, TFA]
pEC50 ([1]; read-out: Activity): < 6.00
CC50 at 4 day [2]: 71000 nM

COc1ccc(-n2ccnc2C(Cc2cc(F)cc(F)c2)NC(=O)NS(=O)(=O)c2ccccc2F)cc1 (racemic) [Example 84, (rac)-N-((2-(3,5-difluorophenyl)-1-(1-(4-methoxyphenyl)-1H-imidazol-2-yl)ethyl)carbamoyl)-2-fluorobenzenesulfonamide]
pEC50 ([1]; read-out: Activity): 6.00 to 7.00
pEC50 ([1]; read-out: EC50): 6.16
CC50 at 4 day [2]: > 100000 nM

Cc1ccccc1S(=O)(=O)NC(=O)N[C@@H](Cc1ccccc1)c1nccn1-c1ccccc1 [Example 31, (S)-2-methyl-N-((2-phenyl-1-(1-phenyl-1H-imidazol-2-yl)ethyl)carbamoyl)benzenesulfonamide]
pEC50 ([1]; read-out: Activity): 6.00 to 7.00
CC50 at 4 day [2]: > 100000 nM

Cc1ccccc1S(=O)(=O)NC(=O)N[C@@H](Cc1cc(F)cc(F)c1)c1ncccc1-c1ccc(F)c2ccccc12 [Example 132, (S)-N-((2-(3,5-difluorophenyl)-1-(3-(4-fluoronaphthalen-1-yl)pyridin-2-yl)ethyl)carbamoyl)-2-methylbenzenesulfonamide, TFA]
pEC50 ([1]; read-out: Activity): < 6.00
pEC50 ([1]; read-out: EC50): 5.32
CC50 at 4 day [2]: 73000 nM

Cc1cccc(-n2ccnc2[C@H](Cc2ccccc2)NC(=O)NS(=O)(=O)c2ccccc2C)c1 [Example 23, (S)-2-methyl-N-((2-phenyl-1-(1-(m-tolyl)-1H-imidazol-2-yl)ethyl)carbamoyl)benzenesulfonamide]
pEC50 ([1]; read-out: Activity): > 7.00
CC50 at 4 day [2]: > 100000 nM

Cc1ccccc1S(=O)(=O)NC(=O)N[C@@H](Cc1ccccc1)c1nccn1-c1ccc2c(c1)OCO2 [Example 27, (S)-N-((1-(1-(benzo[d][1,3]dioxol-5-yl)-1H-imidazol-2-yl)-2-phenylethyl)carbamoyl)-2-methylbenzenesulfonamide]
pEC50 ([1]; read-out: Activity): > 7.00
pEC50 ([1]; read-out: EC50): 7.15
CC50 at 4 day [2]: > 100000 nM

COc1ccc(-c2cccnc2C(Cc2cc(F)cc(F)c2)NC(=O)NS(=O)(=O)c2ccccc2Cl)cc1 (stereo in doubt) [Example 114, (S)-2-chloro-N-((2-(3,5-difluorophenyl)-1-(3-(4-methoxyphenyl)pyridin-2-yl)ethyl)carbamoyl)benzenesulfonamide, TFA]
pEC50 ([1]; read-out: Activity): < 6.00
pEC50 ([1]; read-out: EC50): 4.46
CC50 at 4 day [2]: > 100000 nM

C=CCOc1cccc(-n2ccnc2[C@H](Cc2ccccc2)NC(=O)NS(=O)(=O)c2ccccc2C)c1 [Example 17, (S)-N-((1-(1-(3-(allyloxy)phenyl)-1H-imidazol-2-yl)-2-phenylethyl)carbamoyl)-2-methylbenzenesulfonamide]
pEC50 ([1]; read-out: Activity): 6.00 to 7.00
CC50 at 4 day [2]: > 33000 nM

Cc1ccccc1S(=O)(=O)NC(=O)N[C@@H](Cc1ccccc1)c1nccn1-c1ccc(-c2ccsc2)cc1 [Example 60, (S)-2-methyl-N-((2-phenyl-1-(1-(4-(thiophen-3-yl)phenyl)-1H-imidazol-2-yl)ethyl)carbamoyl)benzenesulfonamide]
pEC50 ([1]; read-out: Activity): > 7.00
pEC50 ([1]; read-out: EC50): 7.52
CC50 at 4 day [2]: > 100000 nM

Cc1ccccc1S(=O)(=O)NC(=O)N[C@H](Cc1cc(F)cc(F)c1)c1ncccc1Br [Example 107, (R)-N-((1-(3-bromopyridin-2-yl)-2-(3,5-difluorophenyl)ethyl)carbamoyl)-2-methylbenzenesulfonamide, TFA]
pEC50 ([1]; read-out: Activity): < 6.00
CC50 at 4 day [2]: > 33000 nM

CC(C)(C)OC(=O)n1cc(-c2cccnc2[C@@H](Cc2cc(F)cc(F)c2)NC(=O)NS(=O)(=O)c2ccccc2Cl)c2ccccc21 [Example 101, (R)-tert-butyl 3-(2-(1-(3-((2-chlorophenyl)sulfonyl)ureido)-2-(3,5-difluorophenyl)ethyl)pyridin-3-yl)-1H-indole-1-carboxylate, TFA]
pEC50 ([1]; read-out: Activity): < 6.00
CC50 at 4 day [2]: 36000 nM

Cc1ccccc1S(=O)(=O)NC(=O)N[C@@H](Cc1ccccc1)c1nccn1-c1cccc(Br)c1 [Example 20, (S)-N-((1-(1-(3-bromophenyl)-1H-imidazol-2-yl)-2-phenylethyl)carbamoyl)-2-methylbenzenesulfonamide]
pEC50 ([1]; read-out: Activity): > 7.00
CC50 at 4 day [2]: > 33000 nM

COc1ccc(-c2ccc(-n3ccnc3[C@H](Cc3ccccc3)NC(=O)NS(=O)(=O)c3ccccc3C)cc2)cn1 [Example 63, (S)-N-((1-(1-(4-(6-methoxypyridin-3-yl)phenyl)-1H-imidazol-2-yl)-2-phenylethyl)carbamoyl)-2-methylbenzenesulfonamide]
pEC50 ([1]; read-out: Activity): 6.00 to 7.00
pEC50 ([1]; read-out: EC50): 7.00
CC50 at 4 day [2]: > 100000 nM

O=C(N[C@@H](Cc1ccccc1)c1nccn1-c1ccc2scnc2c1)NS(=O)(=O)c1ccccc1F [Example 71, (S)-N-((1-(1-(benzo[d]thiazol-5-yl)-1H-imidazol-2-yl)-2-phenylethyl)carbamoyl)-2-fluorobenzenesulfonamide]
pEC50 ([1]; read-out: Activity): 6.00 to 7.00
CC50 at 4 day [2]: > 100000 nM

Cc1ccccc1S(=O)(=O)NC(=O)N[C@H](Cc1cc(F)cc(F)c1)c1ncccc1-c1cncc(F)c1 [Example 103, (R)-N-((2-(3,5-difluorophenyl)-1-(5′-fluoro-[3,3′-bipyridin]-2-yl)ethyl)carbamoyl)-2-methylbenzenesulfonamide, 2 TFA]
pEC50 ([1]; read-out: Activity): < 6.00
CC50 at 4 day [2]: > 100000 nM

COc1ccc(-n2ccnc2[C@H](Cc2ccccc2)NC(=O)NS(=O)(=O)c2ccccc2C)c(C)c1 [Example 8, (S)-N-((1-(1-(4-methoxy-2-methylphenyl)-1H-imidazol-2-yl)-2-phenylethyl)carbamoyl)-2-methylbenzenesulfonamide]
pEC50 ([1]; read-out: Activity): 6.00 to 7.00
CC50 at 4 day [2]: > 100000 nM

O=C(N[C@H](Cc1cc(F)cc(F)c1)c1ncccc1-c1cncc(F)c1)NS(=O)(=O)c1ccccc1Cl [Example 110, (R)-2-chloro-N-((2-(3,5-difluorophenyl)-1-(5′-fluoro-[3,3′-bipyridin]-2-yl)ethyl)carbamoyl)benzenesulfonamide, TFA]
pEC50 ([1]; read-out: Activity): < 6.00
CC50 at 4 day [2]: > 33000 nM
